Laboratory results reported in US20250367157A1, “COMPOSITION FOR USE IN THE TREATMENT OF DISEASES ASSOCIATED WITH DYSFUNCTION OF MITOCHONDRIAE” (IUF LEIBNIZ-INSTITUT FÜR UMWELTMEDIZINISCHE FORSCHUNG GMBH, priority 2022, published 2025).

Experiments:
[1] = tested on: primary XPA-deficient human fibroblasts; experiment: RNA isolation and real-time PCR, XPA fibroblasts; type: cell-based; conditions: 24 hours after UVB, Choline 100 mM, alone or combined; for RNA levels of CRYAB, HSPA2, ISYNA1: DMKG 10 mM, FIG. 9; for RNA levels of PKM1, PKM2, MT-ATP6, MT-ATP8, SOD2, AKR1B1, HSPA2, TFPI2: Acetate 10 mM, FIG. 3
Procedure: (§1) 200 ng of purified RNA were used for cDNA synthesis using SuperScript reverse transcriptase (Thermo Fisher). Expression levels of the genes PKM1, PKM2, MT-ATP6, MT-ATP8, MT-ND1, MT-ND3, TFAM, SOD2, AKR1B1, HSPA2 and TFPI2 were analyzed using a CFX Connect Real-Time PCR detection system and SYBR Green Supermix (both from Bio-Rad). Expression levels of the genes mentioned above were normalized in comparison to the housekeeper genes 18S (for experiments with XPA-deficient fibroblasts) or β2-microglobulin (for experiments with CSB-deficient fibroblasts).
200 ng of purified RNA were used for cDNA synthesis using SuperScript reverse transcriptase (Thermo Fisher). Expression levels of selected genes were analyzed using a CFX Connect Real-Time PCR detection system and SYBR Green Supermix (both from Bio-Rad). Expression levels of the selected genes were normalized in comparison to the housekeeper gene 18S.

[2] = tested on: primary normal human dermal fibroblasts (NHF); experiment: ATP immunofluorescence microscopy, NHF; type: cell-based; conditions: Choline 100 mM, Acetate 10 mM, alone or combined
Procedure: Primary NHF and XPA-deficient fibroblasts were grown on chamber glass slides (Sarstedt) in growth medium containing 15% FCS. 48 hours before UVB irradiation, medium was removed, cells were washed with PBS and received growth medium containing 1% FCS. 24 hours later, medium was removed, and cells received growth medium (1% FCS) containing Choline (100 mM) and Acetate (10 mM). Control cells received normal growth medium supplied with 1% FCS. 24 hours later, medium was removed, cells were washed with PBS and were irradiated with UVB in fresh PBS. Unirradiated control (Sham) cells grown in a second chamber were treated essentially equal but were not exposed to UVB. After irradiation, PBS was removed, and cells were treated with Choline/Acetate or control growth medium. 24 hours later, medium was removed, cells were washed with PBS and fixed with 2% paraformaldehyde. For immunofluorescence staining of ATP and the ATP5A subunit of the mitochondrial ATP synthase, cells were permeabilized with PBS containing 0.1% Triton X-100 and incubated with an anti-ATP antibody raised in rabbit (MyBioSource) and an anti-ATP5A antibody raised in mouse (Abcam) overnight at 4° C. […] Cells were incubated with anti-mouse and anti-rabbit secondary antibodies either labeled with a green (Alexa Fluor 488, Thermo Fisher) or with a red fluorescence dye (Alexa Fluor 594, Thermo Fisher) for 2 hours at room temperature. […] Slides were mounted using an anti-fade mounting medium (Southern Biotech) and analyzed with a fluorescence microscope (Zeiss).
As described herein above for FIG. 2 B, further primary normal human dermal fibroblasts (NHF) and XPA-deficient fibroblasts were grown on chamber glass slides (Sarstedt) in growth medium containing 15% FCS. […] Cells were incubated with anti-mouse and anti-rabbit secondary antibodies either labeled with a green (Alexa Fluor 488, Thermo Fisher) or with a red fluorescence dye (Alexa Fluor 594, Thermo Fisher) for 2 hours at room temperature. […] Slides were mounted using an anti-fade mounting medium (Southern Biotech) and analyzed with a fluorescence microscope (Zeiss). […]

[3] = tested on: primary CSB-deficient human fibroblasts; experiment: RNA isolation and real-time PCR, CSB fibroblasts; type: cell-based; conditions: Choline 100 mM, alone or combined
Procedure: as §1
200 ng of purified RNA were used for cDNA synthesis using SuperScript reverse transcriptase (Thermo Fisher). Expression levels of selected genes were analyzed using a CFX Connect Real-Time PCR detection system and SYBR Green Supermix (both from Bio-Rad).

[4] = tested on: primary XPA-deficient human fibroblasts; conditions: Choline 100 mM, Acetate 10 mM, alone or combined; FIG. 2 B, FIG. 7 B
Procedure: Medium was removed and cells received growth medium (1% FCS) containing either Choline (100 mM), Acetate (10 mM), or a combination of Choline (100 mM) and Acetate (10 mM) (Chol/Ac). Control cells received normal growth medium supplied with 1% FCS. 24 hours later, cells received fresh medium containing the respective compounds and were incubated for another 24 hours. The cells were washed with PBS and fixed with 2% paraformaldehyde. For immunofluorescence staining of ATP and the ATP5A subunit of the mitochondrial ATP synthase, cells were permeabilized with PBS containing 0.1% Triton X-100 and incubated with an anti-ATP antibody raised in rabbit (MyBioSource) and an anti-ATP5A antibody raised in mouse (Abcam) overnight at 4° C. Next day, antibodies were removed, and cells were washed three times with PBS containing 0.1% Triton X-100. Cells were incubated with anti-mouse and anti-rabbit secondary antibodies either labeled with a green (Alexa Fluor 488, Thermo Fisher) or with a red fluorescence dye (Alexa Fluor 594, Thermo Fisher) for 2 hours at room temperature. Antibodies were removed and cells were washed three times with PBS containing 0.1% Triton X-100. Slides were mounted using an anti-fade mounting medium (Southern Biotech) and analyzed with a fluorescence microscope (Zeiss).

[5] = tested on: primary XPA-deficient human fibroblasts; experiment: Protein extraction and Western blot, XPA fibroblasts; type: cell-based; conditions: Choline 100 mM alone or with Acetate 10 mM; FIG. 4 A
Procedure: Histone samples were stored at −80° C.

[6] = tested on: primary CSB-deficient human fibroblasts; conditions: Example 2.1; Sham and UVB; Choline 100 mM, Acetate 10 mM, alone or combined; FIG. 11
Procedure: As described herein above for FIG. 2 B, primary NHF and CSB-deficient fibroblasts were grown on chamber glass slides (Sarstedt) in growth medium containing 15% FCS. 48 hours before UVB irradiation, medium was removed, cells were washed with PBS and received growth medium containing 1% FCS. 24 hours later, medium was removed, and cells received growth medium (1% FCS) containing either Choline (100 mM), Acetate (10 mM), or a combination of Choline (100 mM) and Acetate (10 mM) (Chol/Ac). Control cells received normal growth medium supplied with 1% FCS. 24 hours later, medium was removed, cells were washed with PBS and were irradiated with UVB (FIG. 11 B) in fresh PBS. Unirradiated control (Sham) cells (FIG. 11 A) grown in a second chamber were treated essentially equal but were not exposed to UVB. After irradiation, PBS was removed and cells were treated again with the respective compounds or control growth medium. 24 hours later, medium was removed, cells were washed with PBS and fixed with 2% paraformaldehyde. […] Cells were incubated with anti-mouse and anti-rabbit secondary antibodies either labeled with a green (Alexa Fluor 488, Thermo Fisher) or with a red fluorescence dye (Alexa Fluor 594, Thermo Fisher) for 2 hours at room temperature. […] Slides were mounted using an anti-fade mounting medium (Southern Biotech) and analyzed with a fluorescence microscope (Zeiss).

[7] = tested on: primary XPA-deficient human fibroblasts; experiment: Apoptosis measurement (annexin V/propidium iodide flow cytometry); type: cell-based; conditions: Cisplatin 50 μM, 24 hours, XPA Control vs XPA Cisplatin; FIG. 1 B
Procedure: Primary human fibroblasts obtained from Xeroderma pigmentosum group A (XPA) patients and Cockayne Syndrome group B (CSB) patients were purchased from Coriell Institute (USA). Normal human fibroblasts (NHF) were isolated from skin samples obtained from healthy age-matched donors undergoing skin surgery. Cells were grown in Dulbecco's Modified Eagle Medium (DMEM) supplemented with 1% glutamine, antibiotics/antimycotics (growth medium) and 15% fetal calf serum (FCS) at 37° C. in a humidified atmosphere containing 5% CO2. For experiments, cells were detached from culture flasks by treatment with 0.05% trypsin solution (5 min/37° C.). After blocking trypsin activity by adding growth medium with 10% FCS, cells were spun down, resuspended in growth medium (15% FCS) and plated in appropriate culture dishes. Cells were allowed to grow until they reached around 80% confluency. […] Next day, cells were treated with the compounds Choline Chloride (here called Choline), or Sodium Acetate (here called Acetate), or both of them (both compounds were purchased from Sigma-Aldrich). […] Cells were analyzed by using a FACSCanto flow cytometry system. The percentage of early apoptotic cells defined as annexin V (+) and propidium iodide (-) was determined.

COC(=O)CCC(=O)C(=O)OC [DMKG, Dimethyl-α-Ketoglutarate]
RNA levels of CRYAB, HSPA2, ISYNA1 [1]: only little (or even no) effect on most RNA levels

CC(=O)[O-].[Na+] [Acetate, Sodium Acetate]
cellular ATP levels (anti-ATP antibody staining) ([2]; Example 2, FIG. 2 B, FIG. 7 A): no effect on cellular ATP abundance when given alone
RNA levels of PKM1, PKM2, MT-ATP6, MT-ATP8, SOD2, AKR1B1, HSPA2, TFPI2 [1]: does not increase RNA levels after UVB
RNA levels of SOD2, HSPA2 ([3]; 48 hours after UVB, Acetate 10 mM, FIG. 12): only little or even no effect on the RNA levels of the depicted genes
cellular ATP levels (anti-ATP antibody staining) [4]: no effect on cellular ATP abundance when given alone

C[N+](C)(C)CCO.[Cl-] [Choline, Choline Chloride]
cellular ATP levels (anti-ATP antibody staining) ([2]; Example 2, FIG. 2 B, FIG. 7 A): accumulation of ATP in the cellular nuclei
cellular ATP levels (anti-ATP antibody staining) ([2]; Example 2.1, Sham and UVB, FIG. 11): accumulation of ATP in the cellular nuclei
RNA levels of PKM1, PKM2, MT-ATP6, MT-ATP8, SOD2, AKR1B1, HSPA2, TFPI2 [1]: induced gene expression
RNA levels of CRYAB, HSPA2, ISYNA1 [1]: induced gene expression of CRYAB, HSPA2 and ISYNA1
GLUT1 protein level [5]: equally increased
cellular ATP levels (anti-ATP antibody staining) [4]: accumulation of ATP in the cellular nuclei
cellular ATP levels (anti-ATP antibody staining) [6]: accumulation of ATP in the cellular nuclei

N.N.[Cl][Pt][Cl] [Cisplatin]
apoptosis induction by the DNA-damaging agent alone [7]: increased apoptosis (cell death) induction

CCCCCCC(=O)OCC(COC(=O)CCCCCC)OC(=O)CCCCCC [Triheptanoin]
RNA levels of AKR1B1, SOD2 ([3]; 24 hours after UVB, Triheptanoin 100 μM, FIG. 13): only little or even no positive effect on the RNA level of AKR1B1, and SOD2
